We go through 1 compound from PMC8434491, “Targeting the Integrated Stress Response Kinase GCN2 to Modulate Retroviral Integration” (Molecules, 2021).

The structures appear in SMILES notation.

For one test, the target named is T1, IN–GCN2 interaction (UniProt P04585+Q9P2K8).
T1 construct: expressed as a truncated version (192-1024) in fusion after a glutathione S-transferase tag; Recombinant full-length IN was expressed in E. coli BL21 pLys; purchased SignalChem (GCN2); IN made in house in E. coli BL21 pLys E12-11G; host or cells: E. coli BL21 pLys (IN)
In words: IN–GCN2 interaction assay (AlphaLISA). In kind it is binding, HIV-1 IN / human GCN2. Particulars: pilot screen, single dose of 100 µM; read-out: inhibition of the IN–GCN2 interaction signal. From the text:
We developed an in vitro plate-based assay to monitor the interaction between GCN2 and IN using the AlphaLISA technology (Figure 1). Taking advantage of the tags present on each recombinant protein (6xHis for IN prepared “in-house”, and GST for GCN2 commercially available), we used specific beads that fluoresce only when they are in close proximity (<200 nm). The signal obtained (light count) is directly proportional to the binding of IN to GCN2 (homogenous solution assay at steady state).
IN–GCN2 interaction assay. Protein–protein interactions were monitored using the AlphaLISA technology (Perkin Elmer) taking advantage of the GST and 6xHis tags of GCN2 and IN, respectively. Accordingly, AlphaScreen GSH Donor beads and AlphaLISA Nickel Acceptor beads were used (Perkin Elmer). Reactions were carried out at room temperature by incubating GCN2 with drugs or DMSO for 5 min before addition of AlphaLISA Nickel Acceptor beads. After 5 min, IN was added to the reaction mixture and incubated for 20 min before adding the AlphaScreen GSH Donor beads. This interaction assay was performed in conditions similar to the in vitro phosphorylation assay, already described, using 25 nM GCN2 and 700 nM (except indicated otherwise) in a reaction buffer containing 50 mM Tris-HCl pH 7.5, 40 mM NaCl, 1 mM dithiothreitol (DTT), 0.05% Tween 20, 0.1% bovine serum albumin (BSA), 10 µg/mL of each donor and acceptor beads. Alpha signal was measured using an EnSight plate reader (Perkin Elmer) 120 min after the addition of the latest component of the reaction (unless indicated otherwise).

Test [1] concerns the target T2, IN's phosphorylation catalyzed by GCN2 (Homo sapiens, UniProt Q9P2K8).
T2 construct: expressed as a truncated version (192-1024) in fusion after a glutathione S-transferase tag; purchased SignalChem (GCN2); IN made in house in E. coli BL21 pLys E12-11G; host or cells: E. coli BL21 pLys (IN)
T2 sequence (Q9P2K8 192-1024): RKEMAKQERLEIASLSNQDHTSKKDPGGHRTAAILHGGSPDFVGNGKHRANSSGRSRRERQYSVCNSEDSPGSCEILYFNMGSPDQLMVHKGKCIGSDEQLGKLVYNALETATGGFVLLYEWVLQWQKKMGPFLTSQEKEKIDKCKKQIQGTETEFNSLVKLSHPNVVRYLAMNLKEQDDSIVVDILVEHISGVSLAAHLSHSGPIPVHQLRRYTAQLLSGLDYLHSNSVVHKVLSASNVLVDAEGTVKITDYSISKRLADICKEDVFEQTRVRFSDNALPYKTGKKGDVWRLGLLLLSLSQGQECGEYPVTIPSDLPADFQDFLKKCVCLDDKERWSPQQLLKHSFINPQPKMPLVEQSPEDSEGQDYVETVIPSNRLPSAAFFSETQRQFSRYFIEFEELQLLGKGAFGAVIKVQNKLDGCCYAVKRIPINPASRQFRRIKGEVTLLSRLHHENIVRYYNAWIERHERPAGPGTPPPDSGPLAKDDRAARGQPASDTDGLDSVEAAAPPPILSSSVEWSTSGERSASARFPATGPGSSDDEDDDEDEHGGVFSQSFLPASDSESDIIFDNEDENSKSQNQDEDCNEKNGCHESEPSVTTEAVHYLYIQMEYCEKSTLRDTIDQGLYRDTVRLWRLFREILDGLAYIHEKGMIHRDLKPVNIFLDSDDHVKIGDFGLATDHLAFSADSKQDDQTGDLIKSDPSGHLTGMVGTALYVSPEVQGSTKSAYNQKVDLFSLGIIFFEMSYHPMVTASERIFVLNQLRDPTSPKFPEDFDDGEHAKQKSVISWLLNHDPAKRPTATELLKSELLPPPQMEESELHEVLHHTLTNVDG
In words: In vitro phosphorylation assay: phosphorylation of IN catalyzed by GCN2. It is filed as biochemical, human GCN2 / HIV-1 IN. On the procedure:
Enzymes. GCN2 was purchased from SignalChem (EIF2AK4, cat. #E12-11G). […] Recombinant full-length IN was expressed in E. coli BL21 pLys (IPTG induction) and purified on a nickel chelating column, as described. Integrity and purity were checked by direct Coomassie coloration of elution fractions on SDS-PAGE before dialysis to remove imidazole.
In vitro phosphorylation assay. […] Reactions (20 µL) were stopped after a 60 min incubation at 30 °C by adding 10 µL of loading buffer [80 mM Tris-HCl pH 6.8, 100 mM DTT, 10% glycerol, 1% sodium dodecyl sulfate (SDS) and 0.05% bromophenol blue]. Samples were then loaded onto a 10% denaturating SDS-PAGE. After protein separation (120 V for 120 min) the gel was stained using Coomassie Brilliant Blue R-250. Autoradiography was performed using an imaging plate (Fujifilm, Tokyo, Japan) and images were obtained with a FLA-5000 Imaging System (Fujifilm).

Regarding `O=C1c2c(O)ccc(O)c2C(=O)c2c(NCCNCCO)ccc(NCCNCCO)c21` [NSC279836, Mitoxantrone], the inhibition at 100 µM at IN–GCN2 interaction is 99.4%; in test [1] (single dose of 100 µM, compared to DMSO, read-out: decrease (inhibition) in IN phosphorylation) it was ~65%. Moreover, in test [1] (serial dilutions from 300 µM to 137 nM), the “concentration giving full inhibition of IN phosphorylation” value is recorded as 300 µM. The “apparent IC50, IN phosphorylation” value in test [1] (serial dilutions from 300 µM to 137 nM, in words) is listed as “low micromolar range”.
